Experimental data: patent publication US4307189A, “Method for the quantitative determination of terminal deoxynucleotidyl transferase in biological samples” (priority 1980, dated 1981)
Where two headings read alike, the source gives them in different places.

Experiments:
[1] = tested on: polynucleotide phophorylase; conditions: cited from earlier work
TdT = conditions: cited from earlier work
[2] = tested on: other cellular DNA polymerases; conditions: 100 mM ATP added (Mertelsmann); cited from earlier work
[3] = tested on: Terminal Deoxynucleotidyl Transferase (TdT); assay: Incorporation of tritium labeled nucleotide into acid insoluble polydeoxynucleotides by purified TdT; type: biochemical; conditions: purified TdT enzyme sample, 90 minute incubation period, tritium labeled substrate
Method: (§1) To illustrate that suitable modified deoxynucleoside triphosphates and/or single stranded oligodeoxynucleotides which have impaired basing pairing abilities, as described above, are specific to TdT, tritium labeled ethenodeoxyadenosine triphosphate (etheno dATP) and tritium labeled deoxyadenosine triphosphate (dATP) were appropriately incubated with a purified TdT enzyme sample and with a purified E. coli DNA polymerase I sample.

E. coli DNA polymerase I = E. coli DNA polymerase I (Escherichia coli, UniProt P00582); assay: Incorporation of tritium labeled nucleotide into acid insoluble polydeoxynucleotide by purified E. coli DNA polymerase I; type: biochemical; conditions: purified E. coli DNA polymerase I sample, 90 minute incubation period, tritium labeled substrate
Method: as §1

E. coli DNA polymerase I, sequence (P00582 whole entry): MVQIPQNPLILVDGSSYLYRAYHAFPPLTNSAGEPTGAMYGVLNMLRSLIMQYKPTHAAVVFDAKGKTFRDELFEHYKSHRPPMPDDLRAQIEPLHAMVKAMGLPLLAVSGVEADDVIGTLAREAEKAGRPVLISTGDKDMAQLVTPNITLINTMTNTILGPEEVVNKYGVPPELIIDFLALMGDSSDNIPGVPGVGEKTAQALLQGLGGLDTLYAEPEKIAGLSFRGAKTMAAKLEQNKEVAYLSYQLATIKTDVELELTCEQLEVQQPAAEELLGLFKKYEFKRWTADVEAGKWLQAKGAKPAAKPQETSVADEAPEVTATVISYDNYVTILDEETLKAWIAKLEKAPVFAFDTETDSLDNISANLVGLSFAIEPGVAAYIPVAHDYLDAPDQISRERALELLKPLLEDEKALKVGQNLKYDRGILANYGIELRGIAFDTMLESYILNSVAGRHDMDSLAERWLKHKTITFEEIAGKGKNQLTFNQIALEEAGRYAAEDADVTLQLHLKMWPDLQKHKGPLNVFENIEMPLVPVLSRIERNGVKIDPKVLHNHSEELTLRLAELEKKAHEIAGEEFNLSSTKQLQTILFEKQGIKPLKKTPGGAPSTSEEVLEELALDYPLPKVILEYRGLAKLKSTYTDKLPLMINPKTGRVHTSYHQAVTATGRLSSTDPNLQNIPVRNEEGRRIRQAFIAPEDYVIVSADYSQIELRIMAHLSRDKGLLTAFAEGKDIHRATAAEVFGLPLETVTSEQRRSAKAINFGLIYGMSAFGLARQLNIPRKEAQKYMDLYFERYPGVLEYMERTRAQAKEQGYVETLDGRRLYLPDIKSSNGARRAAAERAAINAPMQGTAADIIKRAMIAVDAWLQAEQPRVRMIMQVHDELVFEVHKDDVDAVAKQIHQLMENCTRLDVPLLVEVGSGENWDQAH

Compound	incorporation into acid insoluble polydeoxynucleotides [3]	incorporation into acid insoluble polydeoxynucleotide (E. coli DNA polymerase I)	other results
6-dimethylaminoadenine	–	–	substrate for template independent RNA polymerase, polynucleotide phophorylase [1]: remains a substrate
Nc1ncnc2c1ncn2[C@@H]1O[C@H](COP(=O)(O)OP(=O)(O)OP(=O)(O)O)[C@@H](O)[C@H]1O [ATP, adenosine triphosphate]	–	–	inhibition of TdT activity (TdT; 100 mM ATP added (Mertelsmann)): specifically inhibits TdT; effect on other cellular DNA polymerases [2]: without affecting other cellular DNA polymerases
CCN1C(=O)C=CC1=O [N-ethylmaleimide]	–	–	inhibition of TdT activity (TdT; 10% ethanol and 10 mM N-ethylmaleimide added (Coleman)): completely inhibit TdT activity
Nc1ncnc2c1ncn2[C@H]1C[C@H](O)[C@@H](COP(=O)(O)OP(=O)(O)OP(=O)(O)O)O1 [dATP, deoxyadenosine triphosphate]	progressive incorporation	normally and appreciably incorporated	–
O=P(O)(O)OP(=O)(O)OP(=O)(O)OC[C@H]1O[C@@H](n2cnc3c2ncn2ccnc32)C[C@@H]1O [etheno-dATP, 1,N^6 -ethenodeoxy-adenosine triphophate]	progressive incorporation	no detectable incorporation	–
